Experimental data reported in BindingDB's records for doi:10.7270/Q22F7KVM (The Scripps Research Institute Molecular Screening Center, 2009).

Target: T1, Guanyl-specific ribonuclease T1 (Aspergillus oryzae (strain ATCC 42149 / RIB 40), UniProt P00651)
T1 sequence (P00651 whole entry): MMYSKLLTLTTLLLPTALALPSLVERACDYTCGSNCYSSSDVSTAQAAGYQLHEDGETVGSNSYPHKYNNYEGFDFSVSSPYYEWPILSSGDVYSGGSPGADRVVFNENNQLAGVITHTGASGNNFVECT
Test: RNase T1 inhibitors, dose response, counter-screen for TPT1 inhibitor project, biochemical, fluorescence polarization, 1536-well (AID 2167)

In the case of `Cc1ccc2nc(N=NCc3ccc([N+](=O)[O-])o3)nc(-c3ccccc3)c2c1`, the IC50 is reported as > 55.7 µM.
